Our source for the Mean efficiency values is patent publication US20180179524A1, “COMPOSITIONS AND METHODS FOR INHIBITING CELL PROLIFERATION” (President and Fellows of Harvard College, priority 2015, published 2018).

The data set deals with luciferase-based reporter constructs in S2R+ cells. Briefly: Luciferase-based mutation reporter assay (sgRNA mutation efficiency). It counts as cell-based, Drosophila. Particulars: sgRNAs with no mismatches targeting luciferase-based reporter in S2R+ cells; mutation rate = 1/Firefly luciferase normalized to Renilla. The method, then: The luciferase reporter vector was constructed by PCR amplifying the metallothionein promoter from pMK33 and luciferase gene from pGL3 (Table 1) and combining these with annealed oligos containing a gRNA target site (Table 1 and Table 2) and a custom made cloning vector using Golden Gate assembly.
Luciferase assays were performed by transfecting S2R+ cells with the relevant pl018 plasmid, luciferase reporter and pRL-TK (Promega) (to allow normalization of transfection efficiencies between samples) in 96 well plates using Effectene Transfection Reagent (Qiagen) according to the manufacturer's recommendations. Twenty-four hours after transfection, CuSO4 was added to the cell media at a final concentration of 140 μM and cells were incubated for a further 16 hours.
Firefly and Renilla luciferase readings were taken using the Dual-Glo Luciferase Assay System (Promega) according to manufacturer's instructions and a SpectraMax Paradigm Multi-Mode Microplate Detection Platform (Molecular Devices).
Because the rate of mutations varies widely between different sgRNAs (25-27), whether efficiency could be predicted based on the sgRNA sequence was tested. 75 additional sgRNAs were generated, each targeting luciferase-based reporter constructs with no mismatches and tested mutation efficiency for each. Using this panel of sgRNAs and associated efficiencies, the presence or absence of a correlation between GC content and mutation rate was examined. […] Next, whether a more general sequence-based approach was tested for its ability to improve efficiency prediction. The nucleotide content of all 75 sgRNAs was examined, considering each position separately and generated a probability matrix linking nucleotide content with mutation rate (FIG. 1, panel B). This was then used to generate predicted efficiency scores based on sgRNA sequence. […] Note that sgRNAs targeting close to the 3′ end of genes or with apparent viability effects were not included in this analysis. Finally, predicted scores were generated for all sgRNA target sites in the Drosophila genome and annotated.
“CGAATTACTACGTAGAGCGG: sgRNA targeting a luciferase-based reporter construct, no mismatches (chemistry not given here)” gave a Mean efficiency of 0.1117.

Take “GACCGGATTCGCTACAACCC: sgRNA targeting a luciferase-based reporter construct, no mismatches (chemistry not given here)”: the Mean efficiency is given as 0.6963.

Turning to “ACCCTGTCCACTCATATATG: sgRNA targeting a luciferase-based reporter construct, no mismatches (chemistry not given here)”, the Mean efficiency came to 0.4172.

“GGATGTTCCGGCACAACGCC: sgRNA targeting a luciferase-based reporter construct, no mismatches (chemistry not given here)” registered a Mean efficiency of 0.2753.

As for “TTTTTTTGGGATCATATACG: sgRNA targeting a luciferase-based reporter construct, no mismatches (chemistry not given here)”, the Mean efficiency is reported as 0.1278.

For the substance “GGAGCGAGTTATCTATCCCC: sgRNA targeting a luciferase-based reporter construct, no mismatches (chemistry not given here)”, the Mean efficiency is 0.06181.

Take “CAAGCAAGTCCGGTCGGTTG: sgRNA targeting a luciferase-based reporter construct, no mismatches (chemistry not given here)”: the Mean efficiency came to 0.3531.

On to “TCGAGGATGGGACGCTTATC: sgRNA targeting a luciferase-based reporter construct, no mismatches (chemistry not given here)”, for which the Mean efficiency turned out to be 0.5053.

“CAACCAACAGGTCCGGCCCC: sgRNA targeting a luciferase-based reporter construct, no mismatches (chemistry not given here)”: the Mean efficiency was 0.3833.

Substance “GCACCCTGCACGAATTATTT: sgRNA targeting a luciferase-based reporter construct, no mismatches (chemistry not given here)” gave a Mean efficiency of 0.2041.

“GCCCGAAAGACACGTTTTTT: sgRNA targeting a luciferase-based reporter construct, no mismatches (chemistry not given here)” displayed a Mean efficiency of 0.197.

Turning to “CCGCCGTGTGCTGCGAATAC: sgRNA targeting a luciferase-based reporter construct, no mismatches (chemistry not given here)”, the Mean efficiency is 0.1661.

With “TAAGACATACGTACGCCCAG: sgRNA targeting a luciferase-based reporter construct, no mismatches (chemistry not given here)”, the Mean efficiency worked out at 0.1814.

“AAGTAGGCTCTCCTGAATGG: sgRNA targeting a luciferase-based reporter construct, no mismatches (chemistry not given here)” registered a Mean efficiency of 0.1224.

For “TGCGGTCGCGTGAGAAATAT: sgRNA targeting a luciferase-based reporter construct, no mismatches (chemistry not given here)”, the Mean efficiency amounted to 0.02876.

As for “GGCACCGGGTAGCCTTGCGC: sgRNA targeting a luciferase-based reporter construct, no mismatches (chemistry not given here)”, the Mean efficiency was determined as 0.3497.

Regarding “GTGGAATCTACTGTGGAATC: sgRNA targeting a luciferase-based reporter construct, no mismatches (chemistry not given here)”, the Mean efficiency was found to be 0.2969.

“ATCTTCCCGTCGACATAGCC: sgRNA targeting a luciferase-based reporter construct, no mismatches (chemistry not given here)” gave a Mean efficiency of 0.1609.

For the substance “TCGATGACGCCCGGGTTAAC: sgRNA targeting a luciferase-based reporter construct, no mismatches (chemistry not given here)”, the Mean efficiency turned out to be 0.26.

In turn, “TGCGCTTACCGACGATTGGG: sgRNA targeting a luciferase-based reporter construct, no mismatches (chemistry not given here)” displayed a Mean efficiency of 0.1109.

“CTGCCGTTCTTCAGAAATAT: sgRNA targeting a luciferase-based reporter construct, no mismatches (chemistry not given here)” returned a Mean efficiency of 0.3101.

Take “GGTTCACTATTGGGGCGATC: sgRNA targeting a luciferase-based reporter construct, no mismatches (chemistry not given here)”: the Mean efficiency amounted to 0.1771.

For the substance “AAGATAAGTTCTCTCCTATT: sgRNA targeting a luciferase-based reporter construct, no mismatches (chemistry not given here)”, the Mean efficiency came out at 0.04594.

In turn, “TTGTTCGAAGATCTGCGCGA: sgRNA targeting a luciferase-based reporter construct, no mismatches (chemistry not given here)” registered a Mean efficiency of 0.2212.

For the substance “GCATGCCCACCTTATCGGCG: sgRNA targeting a luciferase-based reporter construct, no mismatches (chemistry not given here)”, the Mean efficiency is reported as 0.1169.

“ACCGCCAAACGGACCGCTTA: sgRNA targeting a luciferase-based reporter construct, no mismatches (chemistry not given here)”: the Mean efficiency turned out to be 0.3105.

“CGCCGGCACCGCGTCCCTAT: sgRNA targeting a luciferase-based reporter construct, no mismatches (chemistry not given here)” displayed a Mean efficiency of 0.2542.

In the case of “GACAAAGGATACTCAAATCC: sgRNA targeting a luciferase-based reporter construct, no mismatches (chemistry not given here)”, the Mean efficiency stood at 0.05169.

As for “GGGCTCCAGGCTGCGCGCAA: sgRNA targeting a luciferase-based reporter construct, no mismatches (chemistry not given here)”, the Mean efficiency stood at 0.2308.

In the case of “AACTCAAAGACCCGCTTTCG: sgRNA targeting a luciferase-based reporter construct, no mismatches (chemistry not given here)”, the Mean efficiency came out at 0.1408.

Turning to “CCAGTAACGTCAAAGCTAGG: sgRNA targeting a luciferase-based reporter construct, no mismatches (chemistry not given here)”, the Mean efficiency came to 0.1068.

“TCGCGGGCTTGCATGACGCG: sgRNA targeting a luciferase-based reporter construct, no mismatches (chemistry not given here)” returned a Mean efficiency of 0.3295.

“ACCGAAAGTCGCGCCGGACG: sgRNA targeting a luciferase-based reporter construct, no mismatches (chemistry not given here)” displayed a Mean efficiency of 0.2496.

The substance “TGACGCCTCAGGGTGCCGTC: sgRNA targeting a luciferase-based reporter construct, no mismatches (chemistry not given here)” had a Mean efficiency of 0.6594.

With “CCTTCGCGAGCACCCGGAAA: sgRNA targeting a luciferase-based reporter construct, no mismatches (chemistry not given here)”, the Mean efficiency is reported as 0.3812.

Substance “CCTGGATGATACGCTGGCGC: sgRNA targeting a luciferase-based reporter construct, no mismatches (chemistry not given here)” came in with a Mean efficiency of 0.1807.

In turn, “GGAATAACCACGTCCCGCGT: sgRNA targeting a luciferase-based reporter construct, no mismatches (chemistry not given here)” gave a Mean efficiency of 0.2894.

For “TTCTCCGCTGTTATCCTATA: sgRNA targeting a luciferase-based reporter construct, no mismatches (chemistry not given here)”, the Mean efficiency turned out to be 0.08182.

Consider “AGACTGGTTTCCACCCGCTC: sgRNA targeting a luciferase-based reporter construct, no mismatches (chemistry not given here)”, for which the Mean efficiency is 1.298.

For the substance “GCTCTGGACCATACGGGGAT: sgRNA targeting a luciferase-based reporter construct, no mismatches (chemistry not given here)”, the Mean efficiency is on record as 0.1746.
